Test results: ChEMBL document CHEMBL1149346, “Activity of nitrogen-containing and non-nitrogen-containing bisphosphonates on tumor cell lines” (J Med Chem, 2006)

How the values were obtained:
Type in all cases: functional, cell-based
SF-268 = experiment: cells; settings: Homo sapiens
Description: Antiproliferative activity against human SF-268 cell line by MTT assay

NCI-H460 = experiment: Antiproliferative activity against human NCI-H460 cell line by MTT assay
MCF7 = experiment: Antiproliferative activity against human MCF7 cell line by MTT assay

Row | SMILES | IC50 (SF-268) | IC50 (NCI-H460) | IC50 (MCF7)
1 | O=P([O-])(O)C(O)(C[n+]1cccc(Cl)c1)P(=O)(O)O (stereo unspecified) | 58.3 µM | 58.1 µM | 121 µM
2 | CN(CCCCc1ccccc1)CCC(O)(P(=O)(O)O)P(=O)(O)O | 49.2 µM | 22.9 µM | 82.5 µM
3 | O=P(O)(O)C(O)(CCc1cccc(-c2ccc(-c3ccccc3)cc2)c1)P(=O)(O)O | 175 µM | 132 µM | 196 µM
4 | O=P([O-])(O)C(C[n+]1ccc(C(F)(F)F)cc1)P(=O)(O)O (stereo unspecified) | > 10000 µM | > 10000 µM | > 10000 µM
5 | O=P([O-])(O)C(C[n+]1cccc(I)c1)P(=O)(O)O (stereo unspecified) | 89.3 µM | 53.7 µM | 123 µM
6 | O=P([O-])(O)C(O)(C[n+]1cccc(-c2ccc(O)cc2)c1)P(=O)(O)O (stereo unspecified) | 30.7 µM | 74.4 µM | 37.2 µM
7 | CC(C)OC(=O)OCOP(=O)(OCOC(=O)OC(C)C)C(Cc1ccc(F)c(F)c1)P(=O)(OCOC(=O)OC(C)C)OCOC(=O)OC(C)C | 28.3 µM | 20.1 µM | 15.2 µM
8 | O=P(O)(O)C(CNc1ccccn1)P(=O)(O)O | 147 µM | 63.7 µM | 223 µM
9 | O=P([O-])(O)C(O)(C[n+]1ccccc1)P(=O)(O)O (stereo unspecified) | 46.8 µM | 69.9 µM | 79.4 µM
10 | O=P([O-])(O)C(C[n+]1ccc(-c2ccc(-c3ccccc3)cc2)cc1)P(=O)(O)O (stereo unspecified) | > 10000 µM | > 10000 µM | > 10000 µM
11 | O=P([O-])(O)C(O)(C[n+]1cccc(-c2ccccc2)c1)P(=O)(O)O (stereo unspecified) | 27.2 µM | 52.2 µM | 44.2 µM
12 | N#Cc1cccc(CC(P(=O)(O)O)P(=O)(O)O)c1 | > 1000 µM | > 1000 µM | > 1000 µM
13 | O=P([O-])(O)C(O)(C[n+]1cccc(-c2ccc(C(F)(F)F)cc2)c1)P(=O)(O)O (stereo unspecified) | 10.4 µM | 23.2 µM | 14.5 µM
14 | O=P(O)(O)C(O)(CCc1cccc(-c2ccccc2-c2ccccc2)c1)P(=O)(O)O | 143 µM | 133 µM | 146 µM
15 | O=P(O)(O)C(O)(Cn1ccnc1)P(=O)(O)O [ZOLEDRONIC ACID] | 14.3 µM | 11.7 µM | 27.7 µM
16 | CCC(C)CNC(P(=O)(O)O)P(=O)(O)O (stereo unspecified) | 301 µM | 469 µM | 447 µM

Row | SMILES | IC50 (SF-268) | IC50 (NCI-H460) | IC50 (MCF7)
17 | O=P(O)(O)C(O)(CCc1cccc(-c2cccc(-c3ccccc3)c2)c1)P(=O)(O)O | 44.7 µM | 46.9 µM | 43.9 µM
18 | O=P(O)(O)C(CNCc1cccc(-c2ccccc2)c1)P(=O)(O)O | 6.18 µM | 5.73 µM | 46 µM
19 | COc1cc[n+](CC(O)(P(=O)([O-])O)P(=O)(O)O)cc1 (stereo unspecified) | 436 µM | 644 µM | 409 µM
20 | Cc1ccc2ccc[n+](CC(O)(P(=O)([O-])O)P(=O)(O)O)c2c1 (stereo unspecified) | 257 µM | 270 µM | 289 µM
21 | O=P([O-])(O)C(C[n+]1cccc(Cl)c1)P(=O)(O)O (stereo unspecified) | 72.7 µM | 59 µM | 132 µM
22 | CC(C)(C)C(=O)OCOP(=O)(OCOC(=O)C(C)(C)C)C(CNc1ccccn1)P(=O)(OCOC(=O)C(C)(C)C)OCOC(=O)C(C)(C)C | 7.89 µM | 5.95 µM | 6.44 µM
23 | O=P(O)(O)C(O)(Cc1ccc(-c2cccc(-c3ccccc3)c2)cc1)P(=O)(O)O | 620 µM | 413 µM | 412 µM
24 | O=P([O-])(O)C(O)(C[n+]1cccc(Cc2ccccc2)c1)P(=O)(O)O (stereo unspecified) | 67 µM | 18.5 µM | 69.2 µM
25 | O=P([O-])(O)C(C[n+]1cccc(-c2ccccc2)c1)P(=O)(O)O (stereo unspecified) | 43.6 µM | 41.3 µM | 34.6 µM
26 | O=P([O-])(O)C(O)(C[n+]1ccc(-c2ccncc2)cc1)P(=O)(O)O (stereo unspecified) | > 10000 µM | > 10000 µM | > 10000 µM
27 | O=P([O-])(O)C(C[n+]1ccc(Cc2ccccc2)cc1)P(=O)(O)O (stereo unspecified) | 133 µM | 141 µM | 125 µM
28 | CC(C)OC(=O)OCOP(=O)(OCOC(=O)OC(C)C)C(Cc1ccc(Cl)c(Cl)c1)P(=O)(OCOC(=O)OC(C)C)OCOC(=O)OC(C)C | 4.78 µM | 4.85 µM | 1.97 µM
29 | O=P(O)(O)C(Nc1ncccc1OCc1ccccc1)P(=O)(O)O | 399 µM | 3210 µM | 339 µM
30 | O=P(O)(O)C(O)(c1cccc(-c2cccc(-c3ccccc3)c2)c1)P(=O)(O)O | 303 µM | 285 µM | 310 µM
31 | O=P([O-])(O)C(C[n+]1ccccc1)P(=O)(O)O (stereo unspecified) | 65.1 µM | 109 µM | 72.3 µM
32 | CN(C)c1cc[n+](CC(O)(P(=O)([O-])O)P(=O)(O)O)cc1 (stereo unspecified) | > 10000 µM | > 10000 µM | > 10000 µM
